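Step 1: Grow cells in 96-well plates. Step 2: Expose to compound for 48 hours at 5 concentrations. Step 3: Interpolate endpoints linearly; if unreached, use highest concentration. GI50 is the concentration that inhibits growth by half.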 Calls of active or inactive are those of the source. No stated cut-off is given here; in the data, active = GI50 up to about 1.1 µM and inactive = higher. A value given as a limit tells only on which side of the number the result lay.

Some test systems named below: MCF7; HCT-116; OVCAR-5; TK-10; SK-OV-3; EKVX; BT-549; NCI-H226; NCI-H522; ACHN; Hs-578T; DU-145; U-251; HOP-62; HT-29; SN12C; HCT-15; HL-60; LOX IMVI; A549.
Holding throughout (test): NCI tumour cell line growth inhibition, 48 h

On to `COC(=O)c1ccc(O)c2nc3c(C=O)c(O)cc(O)c3nc12` [LOMOFUNGIN], for which the GI50 in the assay with MCF7 is 0.369 µM (active); with HCT-116, 0.0977 µM (active); in the assay on OVCAR-5 it was 0.822 µM (active); in the assay on TK-10 it was 1.62 µM (inactive); in the assay on SK-OV-3 it was 2.96 µM (inactive); with EKVX, 1.36 µM (inactive). Further, the GI50 is 0.614 µM (active) in the assay on BT-549; 0.542 µM (active) in the assay on NCI-H226; 0.755 µM (active) in the assay with NCI-H522; 0.32 µM (active) in the assay on ACHN; 1.21 µM (inactive) with Hs-578T; 0.685 µM (active) in the assay with DU-145. The GI50 with U-251 was 0.025 µM (active); in the assay on HOP-62 it was 1.36 µM (inactive); with HT-29 it was 0.458 µM (active); in the assay with SN12C, 0.499 µM (active); with HCT-15, 0.22 µM; with HL-60, 0.293 µM (active). Further, the results for the GI50 in the assay on LOX IMVI and with A549 were 0.269 µM (active) and 0.396 µM (active), respectively.
As for `O=C(Nc1ccc(Cl)cc1)NS(=O)(=O)c1ccc2c(c1)CCC2` [SULOFENUR], the GI50 was 24.1 µM (inactive) with MCF7; 26.2 µM (inactive) in the assay on HCT-116; > 43.8 µM (inactive) with OVCAR-5; 40.5 µM (inactive) with TK-10; 25.8 µM (inactive) in the assay on SK-OV-3; 36.5 µM (inactive) in the assay with EKVX. For the same compound, the GI50 is 32.6 µM (inactive) with BT-549; 37.9 µM (inactive) with NCI-H226; 27.9 µM (inactive) in the assay on NCI-H522; 29.4 µM (inactive) in the assay with ACHN; 0.209 µM (active) in the assay with Hs-578T; 24 µM (inactive) in the assay with DU-145. Also, the GI50 with U-251 is 30.7 µM (inactive); in the assay with HOP-62, 32.2 µM (inactive); with HT-29 it was 61.1 µM (inactive); with SN12C, 39.2 µM (inactive); in the assay with HCT-15 it was 35.6 µM; in the assay on HL-60 it was 2.4 µM (inactive). Also, the GI50 in the assay with LOX IMVI is 37.6 µM (inactive); in the assay on A549 it was 32.7 µM (inactive).

These data come from ChEMBL document CHEMBL1201862, “PubChem BioAssay data set” (2004).
